Measurements reported in patent US6953786B2, “Compositions comprising plant-derived polyphenolic compounds and inhibitors of reactive oxygen species and methods of using thereof” (The Regents of the University of California, priority 2002, dated 2005).

How the values were obtained:
caspase-3 = assay: Caspase-3 (DEVDase) activity, fluorogenic assay with DEVD-AMC; format: cell-based, human; conditions: Mia PACA-2, up to 24 hours, 100 μM, no serum (FIG. 7B)
Procedure: To determine whether a polyphenolic compound activates caspase-3 activity in a time-dependent manner, the following assay was conducted. BSp73AS cells were cultured for 0, 1, 3, and 6 hours and Mia PACA-2 cells were cultured in the absence of serum or growth factors for 0, 1, 4, 6, and 24 hours in the presence of 100 μM or quercetin, trans-resveratrol, rutin, or control. Caspase-3 activity was measured in cell lysates with a fluorogenic assay using DEVD-AMC as a substrate. The results were normalized to the DEVDase activity in untreated cells.
To determine the role of caspases in the effects of combinations of agents on apoptosis, the effects of caspase-3 activity (DEVDase activity) as well as the effect of the broad spectrum caspase inhibitor, Z-VAD, on apoptosis was measured. Specifically, Mia PACA-2 cells were cultured for 72 hours in the presence of serum with or without 100 μM Z-VAD, 15 μM DPI, 100 μM trans-resveratrol, 100 μM genistein, a combination of trans-resveratrol and DPI, and a combination of genistein and DPI. DEVDase activity was measured in whole cell lysates with a fluorimetric assay.
A fluorimetric assay for caspase-3 activity was conducted. […] Cytosolic protein extracts (supernatants) were collected, protein concentrations were determined and the extracts were aliquoted and stored at −80° C. […] The reaction was started by addition of caspase-3 substrate, the readings were taken at 0, 60, 90, and 120 minutes. Fluorescence was calibrated using a standard curve for AMC. The data were expressed as mol AMC/mg protein/min.
Mia PACA-2 cells were cultured in the absence of serum or growth factors for 24 hours in the presence or absence of quercetin (100 μM), trans-resveratrol (100 μM), Z-VAD FMK (50 μM), cyclosporin A (5 μM) and/or aristolochic acid (50 μM). […] The reaction was started by addition of caspase-3 substrate, the readings were taken at 0, 60, 90, and 120 minutes. Fluorescence was calibrated using a standard curve for AMC. […] The data were expressed as mol AMC/mg protein/min. […]

BSp73AS cells = assay: Mitochondrial membrane potential, DiOC6(3) retention; format: cell-based, rat; conditions: 6 hours (FIG. 10A)
Procedure: In order to determine the effects polyphenolic compounds have on mitochondrial membrane potential, the retention of the dye 3,3′-dihexyloxacarbocyanine (DiOC6(3)) was measured as described by Pastorino J G, et al. (1998) J Biol Chem 273:7770-7775, which is herein incorporated by reference. BSp73AS cells were cultured for 6 hours in the absence (control) or presence of 0, 12, 24, 50, and 100 μM quercetin and trans-resveratrol. The cells were loaded with 1 μM DiOC6(3) during the last 30 minutes of treatment with a polyphenolic compound (or vehicle). The cells were then collected and pelleted by centrifugation. The supernatant was removed and the pellet was washed twice with PBS by alternate centrifugation and resuspension. The pellet was then lysed by addition of 1 ml of H2O and homogenized. The concentration of DiOC6(3) was read on a Perkin-Elmer LS-5 fluorescence spectrometer at 488 nm excitation and 500 nm emission. An aliquot of the cells was used for determining the DiOC6(3) fluorescence that was retained by the cells.

cytochrome c = assay: Mitochondrial cytochrome c release (Western blot); format: cell-based, human; conditions: Mia PACA-2, 24 hours, 100 μM, no serum
Procedure: In order to determine the effects polyphenolic compounds have on mitochondrial cytochrome c release and apoptosis, the following assay was conducted. BSp73AS cells were cultured for 6 hours and Mia PACA-2 cells were cultured in the absence of serum or growth factors for 24 hours in the absence or presence of 100 μM of each rutin, trans-resveratrol, genistein, or quercetin. Cells were washed twice with ice-cold PBS, pH 7.2 and resuspended in extraction buffer, about 500 μl, comprising 20 mM HEPES-KOH (pH 7.0), 10 mM KCl, 1 mM NaEGTA, 2 mM MgCl2, 1 mM EDTA, 1 mM DTT, 250 mM sucrose, 1 mM PMSF and protease inhibitors cocktail as provided above. The lysate was incubated for 30 minutes on ice and then homogenized using a glass dounce (80 strokes). Nuclei were removed by centrifugation at 1,000 g for 10 minutes at 4° C. Supernatant was additionally centrifuged for 1 hour at 100,000 g and the resulting supernatant (cytosolic fraction) and pellet (mitochondrial fraction) were collected separately, subjected to SDS-PAGE, and Western blotting using an antibody against cytochrome c. The experiment was repeated twice with similar results.
In order to determine the role of the cancer cell's PTP in the effects of the polyphenolic compounds on mitochondrial function, caspase-3 activation and apoptosis, we performed the following experiments. Mia PACA-2 cells were cultured in the absence of serum or growth factors for 24 hours in the presence or absence of quercetin (100 μM), trans-resveratrol (100 μM), Z-VAD FMK (50 μM), cyclosporin A (5 μM) and/or aristolochic acid (50 μM). Cells were collected, washed with ice-cold PBS and resuspended in lysis buffer comprising 0.5% Nonidet P-40 or manufactured by the name IGEPAL CA-630, 0.5 mM EDTA, 150 mM NaCl and 50 mM Tris at pH 7.5. Cell lysates were placed for 30 minutes on a rotator at 4° C. and then centrifuged for 15 minutes at 15,000 g. Cytosolic protein extracts (supernatants) were collected, protein concentrations were determined and the extracts were aliquoted and stored at −80° C. Cytosolic extracts were subjected to SDS-PAGE and Western blot was performed with an antibody against cytochrome c. Blots were then stripped and re-probed with an antibody against tubulin to confirm equal protein loading. The experiment was repeated twice with similar results.
In order to determine the effect of a combination of trans-resveratrol and quercetin on cytochrome c release and caspase-3 activity, the following was conducted. Mia PACA-2 cells were cultured in the absence of serum or growth factors for 24 hours in the presence or absence of trans-resveratrol (25 μM), quercetin (25 μM), or the combination of trans-resveratrol (25 μM) and quercetin (25 μM). Cytosolic extracts were prepared and subject to SDS-PAGE followed by protein transfer. Immunoblot was performed with an antibody against tubulin to confirm equal protein loading.

NF-κB = NF-κB DNA binding activity (EMSA); format: cell-based, rat; conditions: BSp73AS, 6 hours; polyphenols 100 μM, MG-132 20 μM
Procedure: In order to determine the role of activated NF-κB in the regulation of apoptosis caused by the polyphenolic compound, the following assay was conducted. BSp73AS cells were cultured for 6 hours and Mia PACA-2 cells were cultured in the absence of serum or growth factors for 24 hours in the absence (controls) or presence of rutin, quercetin, trans-resveratrol, or genistein, each at 100 μM and 20 μM proteosome inhibitor MG-132. Nuclear proteins were isolated and analyzed for NF-κB DNA binding activity with electrophoretic mobility shift assay (EMSA). Specifically, aliquots of nuclear extracts with equal amount of protein, about 2 to about 10 μg, were mixed in 20 μl reactions with a buffer comprising 10 mM HEPES (pH 7.6), 50 mM KCl, 0.1 mM EDTA, 1 mM DTT, 10% (vol/vol) glycerol and 3 μg poly[d (I-C)]. After aliquots were equilibrated on ice for 5 minutes, binding reactions were stared by addition of 20-60,000 counts/min (20 fM) of ^32P-labeled DNA probes and allowed to proceed for 25-30 minutes at room temperature or up to 1 hour on ice. The oligonucleotide probe containing the κB binding motif (underlined) was annealed to the complementary oligonucleotide with a 5′-G overhang and end-labeled using Klenow DNA polymerase I. The samples were electrophoresed at room temperature in 0.5×TBE buffer (1×TBE 89 mM Tris base, 89 mM boric acid and 2 mM EDTA) on nondenaturing 4.5% polyacrylamide gel at 200 V. Gels were dried and directly analyzed in the PhosphorImager (Molecular Dynamics, Sunnyvale, Calif.). The experiment was repeated twice.

Row | SMILES | caspase-3 activation (caspase-3) | mitochondrial membrane potential (BSp73AS cells) | cytosolic and mitochondrial cytochrome c (cytochrome c) | NF-κB activation (DNA binding) (NF-κB)
1 | Oc1ccc(/C=C/c2cc(O)cc(O)c2)cc1 [trans-resveratrol] | caused caspase-3 activation | caused dissipation of the mitochondrial membrane potential | caused increases in cytosolic cytochrome c and decreases in mitochondrial cytochrome c | inhibit NF-κB activation
2 | O=c1c(-c2ccc(O)cc2)coc2cc(O)cc(O)c12 [genistein] | – | caused dissipation of the mitochondrial membrane potential | caused increases in cytosolic cytochrome c and decreases in mitochondrial cytochrome c | –
3 | O=c1c(O)c(-c2ccc(O)c(O)c2)oc2cc(O)cc(O)c12 [quercetin] | caused caspase-3 activation | caused dissipation of the mitochondrial membrane potential | caused increases in cytosolic cytochrome c and decreases in mitochondrial cytochrome c | inhibit NF-κB activation
